Patent US20120232062A1, “AZAINDAZOLES TO TREAT FLAVIVIRIDAE VIRUS INFECTION” (EIGER BIOPHARMACEUTICALS, INC., priority 2009, published 2012)

Columns and labels:
[1] = biological target: FTase (Homo sapiens, UniProt P49356); settings: cited from earlier work
[2] = tested on: HCV genotype 1b; assay: HCV 1b replicon luciferase assay; format: cell-based; settings: Hepatitis C virus, Huh-7, 48 h, Table 1; Huh7 HCV 1b replicon, luciferase reporter, 48 hours; read-out: 1b EC50
Outline: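 Luminescence (Steady-Glo) served as the replication read-out after 48 h compound exposure of 1b replicon-luciferase Huh7 cells seeded at 10k/well. Dosing used 5-fold serial dilutions, 10 concentrations, top 25 μM final, 0.1% DMSO, duplicates.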

[3] = biological target: T1, hERG channel (Homo sapiens, UniProt Q12809); assay: hERG channel assay; format: cell-based; settings: CHO cell line expressing hERG, whole cell recordings
T1 construct: host or cells: CHO (Chinese Hamster Ovary), stably transfected
T1 sequence (Q12809 whole entry): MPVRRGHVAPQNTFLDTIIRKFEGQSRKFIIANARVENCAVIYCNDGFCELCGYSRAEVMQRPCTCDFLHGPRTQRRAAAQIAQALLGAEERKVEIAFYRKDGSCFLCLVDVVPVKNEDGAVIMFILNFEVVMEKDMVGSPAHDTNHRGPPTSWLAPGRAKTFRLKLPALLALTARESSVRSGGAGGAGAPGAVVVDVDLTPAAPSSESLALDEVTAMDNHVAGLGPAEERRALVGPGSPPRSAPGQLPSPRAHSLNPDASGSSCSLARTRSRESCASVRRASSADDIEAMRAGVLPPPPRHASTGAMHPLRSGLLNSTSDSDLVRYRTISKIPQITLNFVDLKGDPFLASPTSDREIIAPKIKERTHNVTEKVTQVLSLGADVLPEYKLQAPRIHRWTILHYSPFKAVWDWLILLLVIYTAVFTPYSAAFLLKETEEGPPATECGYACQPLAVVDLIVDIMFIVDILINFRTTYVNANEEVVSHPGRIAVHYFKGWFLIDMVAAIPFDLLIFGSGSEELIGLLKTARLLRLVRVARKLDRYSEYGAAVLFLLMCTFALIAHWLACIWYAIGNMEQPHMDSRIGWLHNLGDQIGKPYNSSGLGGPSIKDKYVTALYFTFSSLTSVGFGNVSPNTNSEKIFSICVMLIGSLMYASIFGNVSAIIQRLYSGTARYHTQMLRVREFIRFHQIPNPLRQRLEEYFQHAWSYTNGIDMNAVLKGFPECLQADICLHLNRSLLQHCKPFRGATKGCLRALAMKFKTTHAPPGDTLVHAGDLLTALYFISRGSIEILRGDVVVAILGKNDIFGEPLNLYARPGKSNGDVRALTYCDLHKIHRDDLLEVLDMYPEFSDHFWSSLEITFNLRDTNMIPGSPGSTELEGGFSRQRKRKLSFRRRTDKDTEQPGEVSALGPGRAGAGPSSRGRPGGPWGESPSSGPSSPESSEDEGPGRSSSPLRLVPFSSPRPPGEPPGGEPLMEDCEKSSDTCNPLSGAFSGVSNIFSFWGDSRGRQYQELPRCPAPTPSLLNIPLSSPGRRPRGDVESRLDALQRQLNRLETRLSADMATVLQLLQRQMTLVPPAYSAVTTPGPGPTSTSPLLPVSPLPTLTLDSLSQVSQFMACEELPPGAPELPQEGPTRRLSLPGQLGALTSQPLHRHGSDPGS
Experimental: The most common mechanism for these adverse events is the inhibition of one or more cardiac potassium channels, in particular hERG. This current is important for cardiac myocyte repolarization and is a common target for drugs that prolong the QT interval. Test articles in this study were therefore characterized to determine their ability to inhibit the hERG channel. Ion channel activity was measured using a stably transfected Chinese Hamster Ovary (CHO) cell line expressing the hERG mRNA. The pharmacology of this cloned channel expressed in the CHO cell line is very similar to that observed in native tissue.
Cells: AVIVA's CHO cell line, which stably expresses hERG channels, was used for the study. Cells were cultured in DMEM/F12 containing 10% FBS, 1% penicillin/streptomycin and 500 μg/ml G418. Before testing, cells were harvested using Accumax (Innovative Cell Technologies).
Solutions: For electrophysiological recordings, the following solutions were used. External Solution: 2 mM CaCl2; 2 mM MgCl2; 4 mM KCl; 150 mM NaCl; 10 mM Glucose; 10 mM HEPES; 310-320 mOsm; pH 7.4 (adjusted with 1M NaOH). Internal Solution: 140 mM KCl; 10 mM MgCl2; 6 mM EGTA; 5 mM HEPESNa; […]; 300-320 mOsm; pH 7.25 (adjusted with 1M KOH).
Electrophysiology: Whole cell recordings were performed using PX 7000A (Axon Instruments) with VIVA's SealChip™ technology. Cells were voltage clamped at a holding potential of −80 mV. The hERG current was then activated by a depolarizing step to −50 mV for 300 ms. This first step at −50 mV was used as a baseline for measuring peak amplitude of the tail current. Next, a voltage step to +20 mV was applied for 5 s to activate the channels. Finally a step back to −50 mV for 5 seconds removed activation and the deactivating tail current was recorded.
Compound Handling and Dilutions: All compounds were prepared from either 10 or 30 mM DMSO stock solutions. Solutions were mixed by sonication for 20 min, followed by vigorous vortexing. Prior to testing, compounds were diluted to test concentrations in glass vials using External Solution. Dilutions were prepared no longer than 20 min prior to use. Equal amounts of DMSO (0.1%) were present in all final dilutions.
Electrophysiology Procedures: After achieving whole cell configuration, cells were monitored for 90 s to assess stability and then washed with External Solution for 66 s. The voltage protocol described above was then applied to the cells every 12 s throughout the procedure. Only stable cells with recording parameters above threshold (see Quality Control section) were allowed to enter the drug addition procedure. External solution containing 0.1% DMSO (vehicle) was applied to the cells to establish a baseline. After allowing the current to stabilize for 3 to 5 min, test articles were applied. Test article solutions were added to cells in 4 separate additions. Cells were kept in test solution until effect of the test article reached steady state, to a maximum of 12 min. Next, 1 μM cisapride (positive control) was added. Finally, washout with External Solution was performed until the recovery current reached a steady state.
Data Analysis: Data analysis was performed using DataXpress (Axon Instruments), Clampfit (Axon Instruments) and Origin (Originlab Corporation) software.

Compound	IC50 [1] [nM]	EC50 [2] [nM]	IC50 [3] [nM]	IC50 ([3]; human, CHO cells stably expressing hERG, pH 7.4) [nM]
Cn1cncc1C(N)(c1ccc(Cl)cc1)c1ccc2c(c1)c(-c1cccc(Cl)c1)cc(=O)n2C (stereo not drawn) [Tipifarnib, 6-[Amino(4-chlorophenyl)-1-methyl-1H-imidazol-5-ylmethyl]-4-(3-chlorophenyl)-1-methyl-2(1H)-quinolinone]	0.86			
O=C(NC1CCNCC1)c1n[nH]c2nc(N3CCCCCC3)ccc12 [compound 655]		2100 to 3500	1340	
Cn1nc(N)c2ccc(N3CCCCCC3)nc21 [compound 658]		400 to 2200	> 10000	
Cn1nc(NC(=O)c2cccs2)c2ccc(N3CCCCCC3)nc21 [compound 659]		1800 to 4900	> 10000	
O=C(Nc1n[nH]c2nc(N3CCCCCC3)ccc12)C1CCNCC1 [compound 680]		4100	> 10000	
Cn1nc(C(=O)Nc2ccncc2)c2ccc(N3CCCCCC3)nc21 [compound 701]		1100	> 10000	
O=C(NCC1CCNCC1)c1n[nH]c2nc(N3CCCCCC3)ccc12 [compound 702]		3400	> 10000	
O=C(NCC1CCCNC1)c1n[nH]c2nc(N3CCCCCC3)ccc12 (stereo not drawn) [compound 703]		2200	8800	
O=C(NC1CCNCC1)c1n[nH]c2nc(OC3CCCCC3)ccc12 [compound 729]		1800	> 10000	
CC(C)CN(C)c1ccc2c(C(=O)NC3CCNCC3)n[nH]c2n1 [compound 738]		2200	> 10000	
O=C(NC1CCNCC1)c1n[nH]c2nc(O)ccc12 [compound 744]		1500	> 10000	
O=C(Nc1nn(Cc2ccc(Cl)cc2)c2nc(N3CCCCCC3)ccc12)C1CCCNC1 (stereo not drawn) [compound 745]		3000	> 10000	
CCC(CC)Oc1ccc2c(COCC3CCNCC3)nn(Cc3ccc(Cl)cc3)c2n1 [compound 756]		2200		10000
Cn1nc(C(=O)NC2CCN(CC3CCCCC3)CC2)c2ccc(N3CCCCCC3)nc21 [compound 987]		550	880	
